Measurements taken from patent publication US20230128252A1, “PHARMACEUTICAL COMPOSITIONS” (Shenzhen Pharmacin Co., Ltd., priority 2020, published 2023).
Where two headings read alike, the source gives them in different places.

Columns and labels:
[1] = Skin permeability of clofazimine preparations (vertical Franz diffusion cells); type: in vitro ADME, NU/NU nude mice; conditions: inner skin, 4 hours, solution
[2] = preparation of clofazimine carbomer gel with organic solvents; type: physicochemical; conditions: Carbomer 940 gel in water, pH 7.0
[3] = Compatibility of clofazimine and excipients (60° C., 3 days, HPLC); type: physicochemical; conditions: for Degradation total impurities: 60° C. for 3 days
Experimental: Clofazimine was dissolved into different excipients with different mass ratios, then the mixture was placed in the condition of 60° C. for 3 days. The total degradation impurities were measured by HPLC and summarized below in Table 25. The excipients were classified by the results as below.

[4] = test system: IL-2 secretion of activated Jurkat cells; test: Inhibition of IL-2 secretion of activated Jurkat cells (ELISA); type: cell-based; conditions: 1 μM, 3 μM, and 10 μM in DMSO; PMA+PHA activated; 24 h (FIG. 11)
Experimental: In each group, Jurkat cells were incubated with corresponding formulation. After 24 h, the secretion of IL-2 was detected by ELISA.

[5] = blood concentration after topical application in minipigs; type: in vivo, Bama minipigs
Experimental: Studies were performed to evaluate the blood concentration-time curve after topical application of Formulations 10-12 (clofazimine 0.01%, 0.03% and 0.1%) in Bama minipigs. 24 Bama minipigs (12 male and 12 female) were randomly divided into 4 groups (n=6), three groups received a single topical application of Formulations 10-12 (clofazimine 0.01%, 0.03% and 0.1%). […] In above 4 groups, Formulations 10-12 were applicated to 5% body surface area of Bama minipigs, that is, 1.5 mg ointment/cm^2 (corresponding to 0.15, 0.45, 1.5 μg API/cm^2 respectively). […] A validated LC-MS/MS method was used to determine the concentration of clofazimine in plasma and the pharmacokinetic parameters were calculated (the standard curve range of clofazimine is 0.0100˜10.0 ng/mL).

[6] = cited from earlier work
[7] = cited from earlier work; for time to reach peak plasma concentration (Tmax): oral administration
[8] = molecular target: Kv1.3 channels in human Jurkat E6-1 cells (Homo sapiens, UniProt P22001); test: Inhibition of Kv1.3 channel current, voltage ramp protocol; conditions: for Inhibition ratio of Kv1.3 channel current in Jurkat E6-1 cells: n 3
Chain of Kv1.3 channels in human Jurkat E6-1 cells (P22001 whole entry): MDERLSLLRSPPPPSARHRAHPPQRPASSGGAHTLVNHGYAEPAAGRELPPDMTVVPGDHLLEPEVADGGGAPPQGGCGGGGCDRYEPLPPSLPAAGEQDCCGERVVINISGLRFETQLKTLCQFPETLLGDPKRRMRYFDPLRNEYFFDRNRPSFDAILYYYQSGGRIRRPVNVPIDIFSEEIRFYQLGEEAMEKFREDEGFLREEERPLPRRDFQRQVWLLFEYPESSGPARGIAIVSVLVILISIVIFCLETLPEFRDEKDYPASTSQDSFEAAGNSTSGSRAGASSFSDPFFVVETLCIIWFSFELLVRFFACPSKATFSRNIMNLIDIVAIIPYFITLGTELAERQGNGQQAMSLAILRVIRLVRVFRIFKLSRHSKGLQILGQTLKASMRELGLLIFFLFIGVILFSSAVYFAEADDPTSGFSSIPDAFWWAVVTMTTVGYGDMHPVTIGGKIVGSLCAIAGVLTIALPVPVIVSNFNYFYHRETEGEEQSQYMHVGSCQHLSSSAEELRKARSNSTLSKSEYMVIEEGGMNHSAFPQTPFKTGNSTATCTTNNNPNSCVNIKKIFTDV

**Q.** With `CC(C)/N=c1\cc2n(-c3ccc(Cl)cc3)c3ccccc3nc-2cc1Nc1ccc(Cl)cc1` [Clofazimine, N,5-bis(4-chlorophenyl)-3-propan-2-ylimino phenazin-2-amine] as the compound, how does the clofazimine content ([1]; clofazimine 100 mg in 99.9 g Ethanol) read?
**A.** Its clofazimine content is 0.5565 ug/cm^2.

**Q.** And the clofazimine content ([1]; clofazimine 100 mg in 99.9 g KHS-15)?
**A.** Its clofazimine content is 0.0660 ug/cm^2.

**Q.** What about the clofazimine content ([1]; clofazimine 100 mg in 99.9 g Laurocapram) of the same compound?
**A.** The clofazimine content was 0.3593 ug/cm^2.

**Q.** And the clofazimine content ([1]; clofazimine 100 mg in 99.9 g Oleic acid)?
**A.** Its clofazimine content is 0.0577 ug/cm^2.

**Q.** What about the clofazimine content ([1]; clofazimine 100 mg in 99.9 g PEG 400) of the same compound?
**A.** The clofazimine content was 0.1174 ug/cm^2.

**Q.** What about the clofazimine content ([1]; clofazimine 100 mg in 99.9 g Transuctol) of the same compound?
**A.** The clofazimine content was 0.0596 ug/cm^2.

**Q.** And the clofazimine content ([1]; clofazimine 100 mg in 99.9 g Tween 20)?
**A.** Its clofazimine content is 0.0639 ug/cm^2.

**Q.** And the clofazimine content ([1]; clofazimine 100 mg in 99.9 g Tween 80)?
**A.** The clofazimine content was 0.0660 ug/cm^2.

**Q.** And the “outcome of gel preparation” value ([2]; solvent Laurocapram)?
**A.** Its value is “formation of separated layers”.

**Q.** What about the “outcome of gel preparation” value ([2]; solvent Propylene glycol) of the same compound?
**A.** Its value is “clofazimine precipitation”.

**Q.** And the “chemical stability (hydrolysis, oxidation)” value [3]?
**A.** Its value is “easily hydrolyzed and oxidized”.

**Q.** What about the Degradation total impurities ([3]; Campmul MCM (1:100)) of the same compound?
**A.** Its Degradation total impurities is greater than 1%.

**Q.** What about the Degradation total impurities ([3]; Campmul MCM + water (1:100:800)) of the same compound?
**A.** Its Degradation total impurities is greater than 1%.

**Q.** What about the Degradation total impurities ([3]; Gelucire 44/14 (1:100)) of the same compound?
**A.** The Degradation total impurities was greater than 1%.

**Q.** What about the Degradation total impurities ([3]; Oleic acid (1:50)) of the same compound?
**A.** The Degradation total impurities was 0.5-1%.

**Q.** And the Degradation total impurities ([3]; Oleic acid + labrasol (1:50:100))?
**A.** The Degradation total impurities was greater than 1%.

**Q.** What about the Degradation total impurities ([3]; PEG 400 (1:400)) of the same compound?
**A.** The Degradation total impurities was greater than 1%.

**Q.** And the Degradation total impurities ([3]; PEG 3350 (1:400))?
**A.** Its Degradation total impurities is 0-0.5%.

**Q.** And the Degradation total impurities ([3]; RH 40 (1:100))?
**A.** The Degradation total impurities was 0-0.5%.

**Q.** And the Degradation total impurities ([3]; Stearyl alcohol (1:70))?
**A.** The Degradation total impurities was 0-0.5%.

**Q.** What about the Degradation total impurities ([3]; Tefose 63 (1:100)) of the same compound?
**A.** Its Degradation total impurities is greater than 1%.

**Q.** What about the Degradation total impurities ([3]; Vaseline (1:3000)) of the same compound?
**A.** The Degradation total impurities was 0-0.5%.

**Q.** What about the Degradation total impurities ([3]; glycerin (1:2500)) of the same compound?
**A.** Its Degradation total impurities is 0-0.5%.

**Q.** What about the Degradation total impurities ([3]; labrasol (1:100)) of the same compound?
**A.** The Degradation total impurities was 0.5-1%.

**Q.** What about the Degradation total impurities ([3]; labrasol + carbomer (1:100:5)) of the same compound?
**A.** Its Degradation total impurities is 0.5-1%.

**Q.** And the Degradation total impurities ([3]; labrasol + water (1:100:800))?
**A.** The Degradation total impurities was 0.5-1%.

**Q.** And the Degradation total impurities ([3]; liquid paraffin (1:1000))?
**A.** Its Degradation total impurities is 0-0.5%.

**Q.** And the Degradation total impurities ([3]; oleic acid + labrasol + water (1:50:100:800))?
**A.** Its Degradation total impurities is greater than 1%.

**Q.** And the Degradation total impurities ([3]; propyl glycol (1:2500))?
**A.** The Degradation total impurities was 0-0.5%.

**Q.** And the Degradation total impurities ([3]; transcutol + tween 80 (1:100:100))?
**A.** Its Degradation total impurities is greater than 1%.

**Q.** And the Degradation total impurities ([3]; transcutol + water (1:100:800))?
**A.** Its Degradation total impurities is 0.5-1%.

**Q.** What about the Degradation total impurities ([3]; trascutol (1:100)) of the same compound?
**A.** The Degradation total impurities was greater than 1%.

**Q.** What about the Degradation total impurities ([3]; tween 80 (1:100)) of the same compound?
**A.** Its Degradation total impurities is greater than 1%.

**Q.** What about the Degradation total impurities ([3]; tween 80 + water (1:100:800)) of the same compound?
**A.** Its Degradation total impurities is greater than 1%.

**Q.** And the “chemical stability of clofazimine in lipid excipients” value ([3]; lipid excipients such as PEG 3350, stearyl alcohol, vaseline, and liquid paraffin)?
**A.** The value was “enhanced chemical stability”.

**Q.** And the “secretion of IL-2” value [4]?
**A.** The value was “significantly inhibited”.

**Q.** And the clofazimine in plasma ([5]; repeated dose (0.03%, bid, 9 applications))?
**A.** Its clofazimine in plasma is “a very low level of clofazimine could be detected in plasma”.

**Q.** What about the clofazimine in plasma ([5]; single dose groups, majority of the samples) of the same compound?
**A.** Its clofazimine in plasma is “no clofazimine was detectable”.

**Q.** What about the clofazimine in plasma ([5]; single dose groups, minority of samples in the 0.01% and 0.1% groups, 1.5 mg ointment/cm^2, 5% body surface area) of the same compound?
**A.** Its clofazimine in plasma is “very low level of clofazimine (close to the detection limit of the instrument)”.

**Q.** And the “gender difference in clofazimine absorption” value ([5]; topical, male and female)?
**A.** Its value is “No significant gender difference”.

**Q.** What about the “Log P” value [6] of the same compound?
**A.** Its value is 7.48.

**Q.** And the pKa [6]?
**A.** The pKa was 8.37.

**Q.** And the Water solubility ([6]; virtually insoluble)?
**A.** Its Water solubility is 0.225 µg/mL.

**Q.** And the “time to reach peak plasma concentration (Tmax)” value ([7]; fasted state)?
**A.** Its value is 12 h.

**Q.** What about the “time to reach peak plasma concentration (Tmax)” value ([7]; fed conditions) of the same compound?
**A.** The value was 8 h.

**Q.** What about the absorption rate ([7]; oral, FDA Label information) of the same compound?
**A.** Its absorption rate is 45-62%.

**Q.** What about the IC50 [8] of the same compound?
**A.** The IC50 was 3.3 µM.

**Q.** What about the “Inhibition ratio of Kv1.3 channel current in Jurkat E6-1 cells” value (shortened to “Inhibition ratio”) ([8]; 0.3 μM) of the same compound?
**A.** Its value is 7.09 ± 0.86%.

**Q.** And the “Inhibition ratio” value ([8]; 1 μM)?
**A.** Its value is 18.89 ± 3.38%.

**Q.** What about the “Inhibition ratio” value ([8]; 3 μM) of the same compound?
**A.** Its value is 46.84 ± 4.55%.

**Q.** What about the “Inhibition ratio” value ([8]; 10 μM) of the same compound?
**A.** The value was 70.11 ± 2.91%.

**Q.** What about the “Inhibition ratio” value ([8]; 20 μM) of the same compound?
**A.** The value was 83.62 ± 1.99%.
